A short description of series [1]: RRCK permeability. The settings on record: MDCK; for Papp A→B: dog.
Series [2] relates to RRCK (Ralph Russ canine kidney cell line). As to the kind of experiment: RRCK permeability. To be noted: MDCK.
The conditions of series [3]: rat; cited from earlier work.
Series [4] has as its system Caco-2. The settings on record: cited from earlier work.
The conditions of series [5]: rat intestinal S-9 fraction and rat brush border membrane vesicles.

Here are results for 16 compounds from publication PMC3488302 (MedChemComm, 2012).

*1 amine or outer side, *2 acyl side, *3 side chain or, on linkers, in order; H or OH if unused. Where a SMILES comes first, the peptide text is derived from it. [ ]: non-standard residue; d: D form. The star is where a group is joined. NMeAbu(4-morpholino) = CN[C@@H](CCN1CCOCC1)C(=O)O; X1 = CN([C@@H](CCN1CCCCC1)C(=O)[*:2])[*:1]; NMeW = CN[C@@H](Cc1c[nH]c2ccccc12)C(=O)O; NMeY = CN[C@@H](Cc1ccc(O)cc1)C(=O)O; NMeCha = CN[C@@H](CC1CCCCC1)C(=O)O; NMeLys(Me) = CNCCCC[C@H](NC)C(=O)O; NMeF = CN[C@@H](Cc1ccccc1)C(=O)O; NMeI = CC[C@H](C)[C@H](NC)C(=O)O; NMeT = CN[C@H](C(=O)O)[C@@H](C)O; NMeD = CN[C@@H](CC(=O)O)C(=O)O; dNMeL = CN[C@H](CC(C)C)C(=O)O; NMeK = CN[C@@H](CCCCN)C(=O)O; NMeS = CN[C@@H](CO)C(=O)O; Morpholide = C1CN(*)CCO1; NMeA = CN[C@@H](C)C(=O)O; Piperidide = C1CCN(*)CC1

Consider `CC(C)C[C@@H]1NC(=O)[C@H](Cc2ccc(O)cc2)N(C)C(=O)[C@H]2CCCN2C(=O)[C@H](CC(C)C)NC(=O)[C@H](C)N(C)C(=O)[C@@H](CC(C)C)N(C)C1=O` [Compound 5] (cyclo(L[dNMeL][NMeA]L[dP][NMeY])), for which the recovery in series [1] was found to be 47.1%. Moreover, the “log Papp(RRCK)” value in series [2] is −5.26.

On to `CC(C)C[C@@H]1NC(=O)[C@H](Cc2ccc(O)cc2)N(C)C(=O)[C@H]2CCCN2C(=O)[C@H](CC(C)C)NC(=O)[C@H](CCN2CCOCC2)N(C)C(=O)[C@@H](CC(C)C)N(C)C1=O` [Compound 15] (cyclo(L[dNMeL][NMeAbu(4-morpholino)]L[dP][NMeY])), for which the recovery in series [1] was found to be 48.7%. Besides, the “log Papp(RRCK)” value in series [2] is reported as −5.92.

For the compound `CC(C)C[C@@H]1NC(=O)[C@H](Cc2ccc(O)cc2)N(C)C(=O)[C@H]2CCCN2C(=O)[C@H](CC(C)C)NC(=O)[C@H]([C@@H](C)O)N(C)C(=O)[C@@H](CC(C)C)N(C)C1=O` [Compound 3] (cyclo(L[dNMeL][NMeT]L[dP][NMeY])), in series [2], the “log Papp(RRCK)” value was −5.33.

Compound `CC(C)C[C@@H]1NC(=O)[C@H](Cc2ccc(O)cc2)N(C)C(=O)[C@H]2CCCN2C(=O)[C@H](CC(C)C)NC(=O)[C@H](Cc2c[nH]c3ccccc23)N(C)C(=O)[C@@H](CC(C)C)N(C)C1=O` [Compound 8] (cyclo(L[dNMeL][NMeW]L[dP][NMeY])) had a recovery in series [1] of 37.1%. Further, the “log Papp(RRCK)” value in series [2] is −6.66.

In series [1], `CC(C)C[C@@H]1NC(=O)[C@H](Cc2ccc(O)cc2)N(C)C(=O)[C@H]2CCCN2C(=O)[C@H](CC(C)C)NC(=O)[C@H](CC(=O)N2CCCCC2)N(C)C(=O)[C@@H](CC(C)C)N(C)C1=O` [Compound 14] (cyclo(L[dNMeL][NMeD](Piperidide)L[dP][NMeY])) yielded a recovery of 45.6%. Moreover, the “log Papp(RRCK)” value in series [2] is reported as −5.84.

In the case of `CC[C@H](C)[C@H]1C(=O)N[C@@H](CC(C)C)C(=O)N2CCC[C@@H]2C(=O)N(C)[C@@H](Cc2ccc(O)cc2)C(=O)N[C@@H](CC(C)C)C(=O)N(C)[C@H](CC(C)C)C(=O)N1C` [Compound 4] (cyclo(L[dNMeL][NMeI]L[dP][NMeY])), the recovery in series [1] was 39.7%.

The compound `CC(C)C[C@@H]1NC(=O)[C@H](Cc2ccc(O)cc2)N(C)C(=O)[C@H]2CCCN2C(=O)[C@H](CC(C)C)NC(=O)[C@H](Cc2ccc(O)cc2)N(C)C(=O)[C@@H](CC(C)C)N(C)C1=O` [Compound 6] (cyclo(L[dNMeL][NMeY]L[dP][NMeY])) came in with a recovery in series [1] of 72.6%. Besides, the “log Papp(RRCK)” value in series [2] is reported as −5.88.

In series [1], `CNCCCC[C@H]1C(=O)N[C@@H](CC(C)C)C(=O)N2CCC[C@@H]2C(=O)N(C)[C@@H](Cc2ccc(O)cc2)C(=O)N[C@@H](CC(C)C)C(=O)N(C)[C@H](CC(C)C)C(=O)N1C` [Compound 11] (cyclo(L[dNMeL][NMeLys(Me)]L[dP][NMeY])) showed a recovery of 59.7% and a Papp A→B of 2.34 nm/s.

Take `CC(C)C[C@@H]1NC(=O)[C@H](Cc2ccc(O)cc2)N(C)C(=O)[C@H]2CCCN2C(=O)[C@H](CC(C)C)NC(=O)[C@H](CC2CCCCC2)N(C)C(=O)[C@@H](CC(C)C)N(C)C1=O` [Compound 12] (cyclo(L[dNMeL][NMeCha]L[dP][NMeY])): the recovery in series [1] amounted to 12.2%. Besides, in series [2], the “log Papp(RRCK)” value is given as −6.74.

“cyclo-[LPro-LPhe-DTrp(NMe)-LLys(NMe)-LThr-LPhe(NMe)] [Kessler peptide]”: the oral bioavailability in series [3] is 10%. The Caco-2 permeability entry in series [4] is “good”.

As to `CC(C)C[C@@H]1NC(=O)[C@H](Cc2ccc(O)cc2)N(C)C(=O)[C@H]2CCCN2C(=O)[C@H](CC(C)C)NC(=O)[C@H](Cc2ccccc2)N(C)C(=O)[C@@H](CC(C)C)N(C)C1=O` [Compound 7] (cyclo(L[dNMeL][NMeF]L[dP][NMeY])), the recovery in series [1] turned out to be 59.8%. The “log Papp(RRCK)” value in series [2] is on record as −5.24.

In series [1], `CC(C)C[C@@H]1NC(=O)[C@H](Cc2ccc(O)cc2)N(C)C(=O)[C@H]2CCCN2C(=O)[C@H](CC(C)C)NC(=O)[C@H](CC(=O)O)N(C)C(=O)[C@@H](CC(C)C)N(C)C1=O` [Compound 9] (cyclo(L[dNMeL][NMeD]L[dP][NMeY])) gave a recovery of 74.8% and a Papp A→B of 4.57 nm/s.

As for `CC(C)C[C@@H]1NC(=O)[C@H](Cc2ccc(O)cc2)N(C)C(=O)[C@H]2CCCN2C(=O)[C@H](CC(C)C)NC(=O)[C@H](CCN2CCCCC2)N(C)C(=O)[C@@H](CC(C)C)N(C)C1=O` [Compound 13] (cyclo(L[dNMeL][X1]L[dP][NMeY])), the recovery in series [1] was found to be 47.9%. In series [2], the “log Papp(RRCK)” value is recorded as −6.15.

`CC(C)C[C@@H]1NC(=O)[C@H](Cc2ccc(O)cc2)N(C)C(=O)[C@H]2CCCN2C(=O)[C@H](CC(C)C)NC(=O)[C@H](CC(=O)N2CCOCC2)N(C)C(=O)[C@@H](CC(C)C)N(C)C1=O` [Compound 16] (cyclo(L[dNMeL][NMeD](Morpholide)L[dP][NMeY])) yielded a recovery in series [1] of 47.9%. The “log Papp(RRCK)” value in series [2] is reported as −6.20.

As to `CC(C)C[C@@H]1NC(=O)[C@H](Cc2ccc(O)cc2)N(C)C(=O)[C@H]2CCCN2C(=O)[C@H](CC(C)C)NC(=O)[C@H](CCCCN)N(C)C(=O)[C@@H](CC(C)C)N(C)C1=O` [Compound 10] (cyclo(L[dNMeL][NMeK]L[dP][NMeY])), the recovery in series [1] was 56.5%. Besides, the “log Papp(RRCK)” value in series [2] is −6.56.

`CC(C)C[C@@H]1NC(=O)[C@H](Cc2ccc(O)cc2)N(C)C(=O)[C@H]2CCCN2C(=O)[C@H](CC(C)C)NC(=O)[C@H](CO)N(C)C(=O)[C@@H](CC(C)C)N(C)C1=O` [Compound 2] (cyclo(L[dNMeL][NMeS]L[dP][NMeY])): the “stability towards oxidative or proteolytic degradation” value in series [5] was “stable”. In addition, the recovery in series [1] was determined as 84.3%. For the same compound, the “log Papp(RRCK)” value in series [2] was −5.81.
